Where “and” joins values, the source holds several entries; their conditions need not be identical. Equal entries are not always repeated. Where two headings read alike, the source gives them in different places.
Experiment: Pharmacokinetic study, IV and PO, plasma, brain and liver
Type: in vivo, mouse
Details: for tolerability / adverse effects: 50 mg/kg p.o. or 10 mg/kg i.v., up to 24 hours; for Plasma concentration, Mean: BQL = below LLOQ (10 ng/ml); for k el: read-out: Kel (Lambda_z) (converted); for MRT inf: read-out: MRT (MRTinf) (converted); for MRT last: read-out: MRT (MRTlast) (converted); for AUC(0-inf): read-out: AUC0→∞ (AUCINF_obs) (converted)
Procedure: The purpose of this study was to determine the pharmacokinetic characteristics of compound NG-537 in C57BL/6J mice following intravenous (IV) and peroral (PO) administration. Levels of NG-537 were determined in blood plasma , brain and liver over time after a single dose .
3.1 Reagents and consumables
DMSO Chromasolv Plus, HPLC grade, ≥99.7% (Sigma-Aldrich, USA; Cat #34869) Acetonitrile Chromasolv, gradient grade, for HPLC, ≥99.9% (Sigma-Aldrich, USA; Cat #34851) Methanol Chromasolv Plus, for HPLC, ≥99.9% (Sigma -Aldrich, USA; Cat 34860) Formic acid for mass spectrometry, ~98% (Fluka, USA; Cat #94318)
Physiological saline (“Yuria -Pharm”, Ukraine, S/# AA13249/1 -1)
Amyl alcohol (UOS, Ukraine) […]
Compound Thiamethoxam was used as internal standard (IS).
Compound NG-537 was supplied as dry powder. The batches of working formulations were prepared 20 min prior to the in vivo study. The vehicle was saline. To prepare the formulation, saline was added to the test compound. The mixture was vortexed for 1 min.
Gradient HPLC system (Shimadzu, Japan)
MS/MS detector API 3000 PE with TurboIonSpray Electrospray module (PE Sciex, Canada) VWR Membrane Nitrogen Generators N2-04-L1466. nitrogen purity 99%+ (VWR, USA) Water purification system Millipore Milli-Q Gradient A10 (Millipore, France) Fixed Speed Vortex Mixer “IKA Lab Dancer” (IKA®-Werke GmbH & Co. KG, Germany; IP-40) Centrifuge 4-15C (Qiagen) (Sigma, Germany)
Ultrasonic bath (Daihan, Korea; WUC-A03H)
(1 picture or pasted object on this page, not shown here)
Study design, animal selection, handling and treatment were all in accordance with the Enamine PK study protocols and the Institutional Animal Care and Use Guidelines. Animal treatment and plasma samples preparation were conducted by the Animal Laboratory personnel at Enamine/Bienta. Male C57BL/6J mice (9-11 weeks old, body weight from 26.1 g to 39.8 g and average body weight across all groups 31.9 g SD = 3.3 g) were used in this study. The animals were randomly assigned to the treatment groups before the pharmacokinetic study; all animals were fasted for 4 h before dosing. Seven time points (5, 15, 30, 60, 240, 480, and 1440 min) were set for this pharmacokinet ic study. Each of the time point treatment group included 4 animals. There was also control group of one animal . Dosing was done according to the treatment schedule outlined in Table 1. Mice were injected IP with 2,2,2-tribromoethanol at the dose of 250 mg/kg prior to drawing the blood. Blood collection was performed from the left ventricle of the heart in tubes containing 10 μl of heparin solution (400 ui/ml). The brain and liver were perfused before sampling. The animal died due to exsanguination during perfusion under anesthesia. All samples were immediately processed, flash-frozen and stored at -70°C until subsequent analysis.
Number of Delivery Target Dose Target Dose Target Dose
Mice Compound ID Formulation Route Level Concentration Volume […]
Plasma samples (40 μl) were mixed with 200 μl of IS solution. After mixing by pipetting and centrifuging for 4 min at 6,000 rpm, 2 μl of each supernatant was injected into LC-MS/MS system.
Solution of compound Thiamethoxam (400 ng/ml in water-methanol mixture 1:9, v/v) was used as internal standard (IS) for quantification of NG-537 in plasma samples.
Analyses of samples were conducted by the Bioanalytical Laboratory personnel at Enamine/Bienta.
Concentrations of NG-537 were determined using high performance liquid chromatography/tandem mass spectrometry (HPLC-MS/MS). Shimadzu HPLC system consisted 2 isocratic pumps LC-10ADvp, an autosampler SIL-20AC, a sub-controller FCV-14AH and a degasser DGU-14A. Mass spectrometric analysis was performed using API 3000 (triple-quadrupole) instrument from AB Sciex (Canada) with an electro -spray (ESI) interface. The data acquisition and system control was performed using Analyst 1.5.2 software (AB […]
3.6 HPLC-MS/MS Conditions
Chromatographic Conditions: […]

[1] = IV 10 mg/kg, 15 min, listed as NG-537, 10 mg/kg
[2] = PO 50 mg/kg, 15 min, listed as NG-537, 50 mg/kg
[3] = male, C57BL/6J, mouse, brain, PO 50 mg/kg
[4] = male, C57BL/6J, mouse, liver, PO 50 mg/kg
[5] = male, C57BL/6J, mouse, plasma, IV 10 mg/kg
[6] = male, C57BL/6J, mouse, plasma, PO 50 mg/kg

Cc1ccc(-c2cn3cccc(C)c3n2)cc1S(=O)(=O)N1CCNCC1 [YB-537]
tolerability / adverse effects: nontoxic and well tolerated | tolerability / adverse effects (listed as NG-537): No obvious adverse effects were observed | bioavailability (C57BL/6J, mouse, in vivo, PO 50 mg/kg vs IV 10 mg/kg, male mice): 82% | Liver concentration, Mouse A-D [1]: 17352 ng/g and 12944 ng/g and 10288 ng/g | Plasma concentration, Mouse A-D [1]: 1001 ng/mL and 1370 ng/mL and 836 ng/mL | Plasma concentration, Mean (IV 10 mg/kg, 240 min): BQL | Plasma concentration, Mouse A-D (IV 10 mg/kg, 240 min, all four BQL): BQL | Plasma concentration, Mean (IV 10 mg/kg, 480 min): BQL | Plasma concentration, Mouse A-D (IV 10 mg/kg, 480 min, all four BQL): BQL | Plasma concentration, Mean (IV 10 mg/kg, 1440 min): BQL | Plasma concentration, Mouse A-D (IV 10 mg/kg, 1440 min, all four BQL): BQL | Brain concentration, Mouse A-D [2]: 227 ng/g and 139 ng/g and 162 ng/g | Plasma concentration, Mouse A-D [2]: 1721 ng/mL and 2715 ng/mL and 1977 ng/mL | Plasma concentration, Mouse A-D (PO 50 mg/kg, 30 min, listed as NG-537, 50 mg/kg): 1258 ng/mL and 2296 ng/mL and 1618 ng/mL | Brain concentration, Mouse A-D (PO 50 mg/kg, 60 min, listed as NG-537, 50 mg/kg): 158 ng/g and 264 ng/g and 241 ng/g | Plasma concentration, Mean (PO 50 mg/kg, 480 min): BQL | Plasma concentration, Mean (PO 50 mg/kg, 1440 min): BQL | Plasma concentration, Mouse A-D (PO 50 mg/kg, 1440 min, all four BQL): BQL | AUC0→t=240min (AUClast) (brain, PO 50 mg/kg): 30500 ng·min/g | AUC0→∞ (AUCINF_obs) (brain, PO 50 mg/kg): 33100 ng·min/g | time of peak brain concentration after oral administration (brain, PO 50 mg/kg): approximately one | time of peak brain concentration following p.o. administration (brain, PO 50 mg/kg): 1 h | peak brain concentration, molar equivalent (brain, oral administration, equivalent of 203 ng/g): approximately 500 nM | AUC0→t=240min (AUClast) (liver, PO 50 mg/kg): 5530000 ng·min/g | AUC0→∞ (AUCINF_obs) (liver, PO 50 mg/kg): 5850000 ng·min/g | concentration at 15 min (male, C57BL/6J, mouse, brain, iv, 10 mg/kg, IV 10 mg/kg, 15 min, read-out: Brain concentration, Mean): 1070 ng/g | concentration at 15 min (male, C57BL/6J, mouse, brain, po, 50 mg/kg, PO 50 mg/kg, 15 min, read-out: Brain concentration, Mean): 172 ng/g | concentration at 15 min (male, C57BL/6J, mouse, brain, po, 50 mg/kg, PO 50 mg/kg, 15 min, read-out: Brain concentration, Mouse A-D): 161 ng/g | concentration at 60 min (male, C57BL/6J, mouse, brain, po, 50 mg/kg, PO 50 mg/kg, 60 min, read-out: Brain concentration, Mean): 203 ng/g | concentration at 60 min (male, C57BL/6J, mouse, brain, po, 50 mg/kg, PO 50 mg/kg, 60 min, read-out: Brain concentration, Mouse A-D): 148 ng/g | concentration at 240 min (male, C57BL/6J, mouse, brain, po, 50 mg/kg, PO 50 mg/kg, 240 min, BQL = below LLOQ, read-out: Brain concentration, Mouse A-D): 37 ng/g | concentration at 240 min (male, C57BL/6J, mouse, brain, po, 50 mg/kg, PO 50 mg/kg, 240 min, read-out: Brain concentration, Mean): 28 ng/g | half-life (male, C57BL/6J, mouse, in vivo, po, 50 mg/kg, brain, PO 50 mg/kg, read-out: T1/2 (HL_Lambda_z)): 63.5 min | half-life (male, C57BL/6J, mouse, in vivo, po, 50 mg/kg, mouse brain, acute oral dosing, read-out: clearance half life (converted)): ~60 min | concentration at 15 min (male, C57BL/6J, mouse, liver, iv, 10 mg/kg, IV 10 mg/kg, 15 min, read-out: Liver concentration, Mean): 13100 ng/g | concentration at 15 min (male, C57BL/6J, mouse, liver, iv, 10 mg/kg, IV 10 mg/kg, 15 min, read-out: Liver concentration, Mouse A-D): 12000 ng/g | concentration at 15 min (male, C57BL/6J, mouse, liver, po, 50 mg/kg, PO 50 mg/kg, 15 min, read-out: Liver concentration, Mean): 67700 ng/g | concentration at 60 min (male, C57BL/6J, mouse, liver, po, 50 mg/kg, PO 50 mg/kg, 60 min, read-out: Liver concentration, Mean): 28000 ng/g | concentration at 240 min (male, C57BL/6J, mouse, liver, po, 50 mg/kg, PO 50 mg/kg, 240 min, read-out: Liver concentration, Mean): 3900 ng/g | concentration at 5 min (male, C57BL/6J, mouse, plasma, iv, 10 mg/kg, IV 10 mg/kg): 2010 ng/mL | concentration at 15 min (male, C57BL/6J, mouse, plasma, iv, 10 mg/kg, IV 10 mg/kg, 15 min, read-out: Plasma concentration, Mean): 1020 ng/mL | concentration at 15 min (male, C57BL/6J, mouse, plasma, iv, 10 mg/kg, IV 10 mg/kg, 15 min, read-out: Plasma concentration, Mouse A-D): 863 ng/mL | concentration at 30 min (male, C57BL/6J, mouse, plasma, iv, 10 mg/kg, IV 10 mg/kg, 30 min, read-out: Plasma concentration, Mean): 432 ng/mL | concentration at 60 min (male, C57BL/6J, mouse, plasma, iv, 10 mg/kg, IV 10 mg/kg, 60 min, read-out: Plasma concentration, Mean): 191 ng/mL | concentration at 5 min (male, C57BL/6J, mouse, plasma, po, 50 mg/kg, PO 50 mg/kg): 451 ng/mL | concentration at 15 min (male, C57BL/6J, mouse, plasma, po, 50 mg/kg, PO 50 mg/kg, 15 min, read-out: Plasma concentration, Mean): 2030 ng/mL | concentration at 15 min (male, C57BL/6J, mouse, plasma, po, 50 mg/kg, PO 50 mg/kg, 15 min, read-out: Plasma concentration, Mouse A-D): 1720 ng/mL | concentration at 30 min (male, C57BL/6J, mouse, plasma, po, 50 mg/kg, PO 50 mg/kg, 30 min, read-out: Plasma concentration, Mean): 1720 ng/mL | concentration at 30 min (male, C57BL/6J, mouse, plasma, po, 50 mg/kg, PO 50 mg/kg, 30 min, read-out: Plasma concentration, Mouse A-D): 1730 ng/mL | concentration at 60 min (male, C57BL/6J, mouse, plasma, po, 50 mg/kg, PO 50 mg/kg, 60 min, read-out: Plasma concentration, Mean): 1130 ng/mL | concentration at 240 min (male, C57BL/6J, mouse, plasma, po, 50 mg/kg, PO 50 mg/kg, 240 min, read-out: Plasma concentration, Mean): 151 ng/mL | concentration at 480 min (male, C57BL/6J, mouse, plasma, po, 50 mg/kg, PO 50 mg/kg, 480 min, three BQL, 15 marked as Grubbs outlier, read-out: Plasma concentration, Mouse A-D): 15 ng/mL | Tmax [3]: 60 min | Cmax (male, C57BL/6J, mouse, brain, PO 50 mg/kg, read-out: Cmax (peak concentration)): 203 ng/g | k el [3]: 0.000182 s⁻¹ | MRT inf [3]: 88.2 min | MRT last [3]: 67.5 min | Tmax [4]: 15 min | Cmax (male, C57BL/6J, mouse, liver, PO 50 mg/kg, read-out: Cmax): 67700 ng/g | k el [4]: 0.000203 s⁻¹ | MRT inf [4]: 69.5 min | MRT last [4]: 54.9 min | half-life (male, C57BL/6J, mouse, liver, PO 50 mg/kg, read-out: T1/2 (HL_Lambda_z)): 56.8 min | C0 [5]: 2820 ng/mL | AUC(0-t) (male, C57BL/6J, mouse, plasma, IV 10 mg/kg, read-out: AUC0→t=60min (AUClast) (converted)): 790 ng·h/mL | AUC(0-inf) [5]: 867 ng·h/mL | clearance (male, C57BL/6J, mouse, plasma, IV 10 mg/kg, read-out: CL (Cl_obs)): 190 mL/min/kg | k el [5]: 0.000695 s⁻¹ | MRT inf [5]: 21.4 min | MRT last [5]: 15.4 min | half-life (male, C57BL/6J, mouse, plasma, IV 10 mg/kg, read-out: T1/2 (HL_Lambda_z)): 16.6 min | Vd (male, C57BL/6J, mouse, plasma, IV 10 mg/kg, read-out: Vd (Vz_obs)): 5 L/kg | Tmax [6]: 15 min | AUC(0-t) (male, C57BL/6J, mouse, plasma, PO 50 mg/kg, read-out: AUC0→t=240min (AUClast) (converted)): 3330 ng·h/mL | AUC(0-inf) [6]: 3550 ng·h/mL | Cmax (male, C57BL/6J, mouse, plasma, PO 50 mg/kg, read-out: Cmax): 2030 ng/mL | k el [6]: 0.000192 s⁻¹ | MRT inf [6]: 76.2 min | MRT last [6]: 59.8 min | Cmax (plasma, IV 10 mg/kg (summary table)): 2010 ng/ml(g)
